# Values of other authors, collected in patent US12697292B2, “Method for treating human hair with agents containing mixtures of organic C1-C6 alkoxy siloxanes” (Henkel AG & Co. KGaA, priority 2021, dated 2026).
# Conditions: 25° C.
compound,measurement,value
CCN(Cc1cccc(S(=O)(=O)[O-])c1)c1ccc(C(=C2C=CC(=[N+](CC)Cc3cccc(S(=O)(=O)[O-])c3)C=C2)c2ccccc2S(=O)(=O)[O-])cc1.[Na+].[Na+] [Acid Blue 9],water solubility,more than 20 wt. %
"O=S(=O)([O-])c1ccc(N=Nc2c(O)ccc3ccccc23)cc1.[Na+] [Acid Orange 7, sodium salt of 4-[(2-hydroxy-1-naphthyl)azo] benzene sulphonate]",water solubility,more than 7 g/L
"Nc1cc(S(=O)(=O)[O-])cc2cc(S(=O)(=O)[O-])c(N=Nc3ccccc3)c(O)c12.[Na+].[Na+] [Acid Red 33, dianhydro salt of 5-amino-4-hydroxy-3-(phenylazo)-naphthalene-2,7-disulfonate]",water solubility,2500 µg/mL
"O=C([O-])c1c(Cl)c(Cl)c(Cl)c(Cl)c1-c1c2cc(Br)c(=O)c(Br)c-2oc2c(Br)c([O-])c(Br)cc12.[Na+].[Na+] [Acid Red 92, disodium salt of 3,4,5,6-tetrachloro-2-(1,4,5,8-tetrabromo-6-hydroxy-3-oxanthene-9-yl) benzoic acid]",water solubility,greater than 10 g/L
"O=C([O-])C1=NN(c2ccc(S(=O)(=O)[O-])cc2)C(=O)C1N=Nc1ccc(S(=O)(=O)[O-])cc1.[Na+].[Na+].[Na+] (centres unmarked) [Acid Yellow 23, trisodium salt of 4,5-dihydro-5-oxo-1-(4-sulfophenyl)-4-((4-sulfophenyl)azo)-1H-pyrazole-3−carboxylic acid]",solubility in water,readily soluble
